We go through 12 substances from US12059458B2, “Peptides and combination of peptides and scaffolds for use in immunotherapy against renal cell carcinoma (RCC) and other cancers” (Immatics Biotechnologies GmbH, priority 2015, dated 2024).

For experiment [1], the system named is CD8+ T cells of healthy HLA-A*02 donors. Description: In vitro immunogenicity: T-cell priming with aAPCs loaded with peptide/MHC complexes and anti-CD28 antibody, pMHC multimer readout. It counts as cell-based, human. The following applies: Table 10B. The source says:
In order to obtain information regarding the immunogenicity of the TUMAPs of the present invention, the inventors performed investigations using an in vitro T-cell priming assay based on repeated stimulations of CD8+ T cells with artificial antigen presenting cells (aAPCs) loaded with peptide/MHC complexes and anti-CD28 antibody.
In order to perform in vitro stimulations by artificial antigen presenting cells loaded with peptide-MHC complex (pMHC) and anti-CD28 antibody, the inventors first isolated CD8+ T cells from fresh HLA-A*02 leukapheresis products via positive selection using CD8 microbeads (Miltenyi Biotec, Bergisch-Gladbach, Germany) of healthy donors obtained from the University clinics Mannheim, Germany, after informed consent.
PBMCs and isolated CD8+ lymphocytes were incubated in T-cell medium (TCM) until use consisting of RPMI-Glutamax (Invitrogen, Karlsruhe, Germany) supplemented with 10% heat inactivated human AB serum (PAN-Biotech, Aidenbach, Germany), 100 U/ml Penicillin/100 μg/ml Streptomycin (Cambrex, Cologne, Germany), 1 mM sodium pyruvate (CC Pro, Oberdorla, Germany), 20 μg/ml Gentamycin (Cambrex). 2.5 ng/ml IL-7 (PromoCell, Heidelberg, Germany) and 10 U/ml IL-2 (Novartis Pharma, Nümberg, Germany) were also added to the TCM at this step.
Generation of pMHC/anti-CD28 coated beads, T-cell stimulations and readout was performed in a highly defined in vitro system using four different pMHC molecules per stimulation condition and 8 different pMHC molecules per readout condition.
The purified co-stimulatory mouse IgG2a anti human CD28 Ab 9.3 (Jung et al., 1987) was chemically biotinylated using Sulfo-N-hydroxysuccinimidobiotin as recommended by the manufacturer (Perbio, Bonn, Germany). Beads used were 5.6 μm diameter streptavidin coated polystyrene particles (Bangs Laboratories, Illinois, USA).
pMHC used for positive and negative control stimulations were A*0201/MLA-001 (peptide […] (SEQ ID NO. 152) from modified Melan-A/MART-1) and A*0201/DDX5-001 ([…] from DDX5 (SEQ ID NO. 153)), respectively.
800.000 beads/200 μl were coated in 96-well plates in the presence of 4×12.5 ng different biotin-pMHC, washed and 600 ng biotin anti-CD28 were added subsequently in a volume of 200 μl. Stimulations were initiated in 96-well plates by co-incubating […] CD8+ T cells with 2×10^5 washed coated beads in 200 μl TCM supplemented with 5 ng/ml IL-12 (PromoCell) for 3 days at 37° C. Half of the medium was then exchanged by fresh TCM supplemented with 80 U/ml IL-2 and incubating was continued for 4 days at 37° C. This stimulation cycle was performed for a total of three times. For the pMHC multimer readout using 8 different pMHC molecules per condition, a two-dimensional combinatorial coding approach was used as previously described (Andersen et al., 2012) with minor modifications encompassing coupling to 5 different fluorochromes. Finally, multimeric analyses were performed by staining the cells with Live/dead near IR dye (Invitrogen, Karlsruhe, Germany), CD8-FITC antibody clone SK1 (BD, Heidelberg, Germany) and fluorescent pMHC multimers. For analysis, a BD LSRII SORP cytometer equipped with appropriate lasers and filters was used. Peptide specific cells were calculated as percentage of total CD8+ cells. Evaluation of multimeric analysis was done using the FlowJo software (Tree Star, Oregon, USA). In vitro priming of specific multimer+ CD8+ lymphocytes was detected by comparing to negative control stimulations.

In the next experiment the target is HLA-A*02:01 (Homo sapiens, UniProt P04439, D140Y/D185E/D98H/E176V/E277Q/G131W/G231S/I119V/I121R/I166T/I218V/L300P/L318F/N151K/N90K/P208A/P217A/Q86G/Q94H/R138H/R169H/T345S). Description: MHC binding assay (UV-ligand exchange, beta2m ELISA, peptide exchange yield). The following applies: binding to HLA-A*02:01 ranged by peptide exchange yield, β2m ELISA. The source says:
Candidate peptides for T cell based therapies according to the present invention were further tested for their MHC binding capacity (affinity). The individual peptide-MHC complexes were produced by UV-ligand exchange, where a UV-sensitive peptide is cleaved upon UV-irradiation, and exchanged with the peptide of interest as analyzed. Only peptide candidates that can effectively bind and stabilize the peptide-receptive MHC molecules prevent dissociation of the MHC complexes. To determine the yield of the exchange reaction, an ELISA was performed based on the detection of the light chain (β2m) of stabilized MHC complexes. The assay was performed as generally described in Rodenko et al. (Rodenko et al., 2006).
96 well MAXISorp plates (NUNC) were coated over night with 2 ug/ml streptavidin in PBS at room temperature, washed 4× and blocked for 1 h at 37° C. in 2% BSA containing blocking buffer. Refolded HLA-A*02:01/MLA-001 monomers served as standards, covering the range of 15-500 ng/ml. Peptide-MHC monomers of the UV-exchange reaction were diluted 100 fold in blocking buffer. Samples were incubated for 1 h at 37° C., washed four times, incubated with 2 ug/ml HRP conjugated anti-β2m for 1h at 37° C., washed again and detected with TMB solution that is stopped with […]. Absorption was measured at 450 nm. Candidate peptides that show a high exchange yield (preferably higher than 50%, most preferred higher than 75%) are generally preferred for a generation and production of antibodies or fragments thereof, and/or T cell receptors or fragments thereof, as they show sufficient avidity to the MHC molecules and prevent dissociation of the MHC complexes.
On the technique in general: An ELISA detects its analyte on a solid surface through an enzyme-linked reagent.

Regarding “98 (KIPPVSPSI; listed as Homo sapiens) [compound 98]”, in experiment [1], the “Wells positive [%]” value is listed as “++++ (> = 70% = ++++)”. Also, the “Peptide exchange (MHC class I binding score)” value (“Peptide exchange” below) in the experiment with HLA-A*02:01 is “++ (≥20% = ++)”.

Turning to “36 (SLFGKKYIL; listed as Homo sapiens) [compound 36]”, the “Wells positive [%]” value in experiment [1] is “++ (20%-49% = ++)”. Moreover, the “Peptide exchange” value in the experiment with HLA-A*02:01 is listed as “++ (≥20% = ++)”.

In the case of “34 (ELNNQNFYL; listed as Homo sapiens) [compound 34]”, the “Wells positive [%]” value in experiment [1] is “++ (20%-49% = ++)”. Further, the “Peptide exchange” value with HLA-A*02:01 is “+++ (≥50 = +++)”.

Regarding “16 (FMPEELPQL; listed as Homo sapiens) [compound 16]”, the “Wells positive [%]” value in experiment [1] is listed as “+ (<20% = +)”. Besides, in the experiment with HLA-A*02:01, the “Peptide exchange” value is listed as “++ (≥20% = ++)”.

For the substance “15 (ILIKHLVKV; listed as Homo sapiens) [compound 15]”, the “Wells positive [%]” value in experiment [1] is listed as “+ (<20% = +)”. In addition, in the experiment with HLA-A*02:01, the “Peptide exchange” value was “++ (≥20% = ++)”.

On to “20 (AVANTTFTV; listed as Homo sapiens) [compound 20]”, for which the “Wells positive [%]” value in experiment [1] was “+ (<20% = +)”. In addition, in the experiment with HLA-A*02:01, the “Peptide exchange” value is listed as “++ (≥20% = ++)”.

For the substance “6 (VLFELSKTV; listed as Homo sapiens) [compound 6]”, the “Wells positive [%]” value in experiment [1] is given as “+ (<20% = +)”. Besides, in the experiment with HLA-A*02:01, the “Peptide exchange” value was “+++ (≥50 = +++)”.

For the substance “1 (ALIVSLPYL; listed as Homo sapiens) [compound 1]”, in experiment [1], the “Wells positive [%]” value is “+ (<20% = +)”. Also, in the experiment with HLA-A*02:01, the “Peptide exchange” value is given as “+++ (≥50 = +++)”.

“18 (YVLDLAAKV; listed as Homo sapiens) [compound 18]”: in experiment [1], the “Wells positive [%]” value is recorded as “++ (20%-49% = ++)”. Besides, in the experiment with HLA-A*02:01, the “Peptide exchange” value is on record as “+++ (≥50 = +++)”.

Regarding “29 (ILLDLEQAL; listed as Homo sapiens) [compound 29]”, the “Wells positive [%]” value in experiment [1] was “+ (<20% = +)”. Also, in the experiment with HLA-A*02:01, the “Peptide exchange” value is “+++ (≥50 = +++)”.

For the substance “22 (FLSPPLPSV; listed as Homo sapiens) [compound 22]”, in experiment [1], the “Wells positive [%]” value is listed as “++ (20%-49% = ++)”. The “Peptide exchange” value in the experiment with HLA-A*02:01 was “+++ (≥50 = +++)”.

With “3 (RLLGEVQAL; listed as Homo sapiens) [compound 3]”, the “Wells positive [%]” value in experiment [1] is given as “+ (<20% = +)”. For the same substance, the “Peptide exchange” value with HLA-A*02:01 was “++ (≥20% = ++)”.
